Experimental data: patent US10039283B2, “Substituted pyrazolyl-nicotin(thio)amide derivatives and their use as fungicides” (BAYER CROPSCIENCE AKTIENGESELLSCHAFT, priority 2014, dated 2018)

Experiment: Log P by HPLC on reversed phase, method [a], acidic range (0.1% formic acid)
Format: physicochemical
Settings: LC-UV, 0.1% formic acid in water and acetonitrile

| LogP | SMILES |
| --- | --- |
| 2.51^[a] | O=C(Nc1cnn(-c2ccccc2F)c1-c1ccc(F)cc1)c1cccnc1C(F)F [Example 147] |
| 2.39^[a] | O=C(Nc1cnn(-c2ccccc2F)c1-c1ccccc1)c1cccnc1C(F)F [Example 148] |
| 2.73^[a] | O=C(Nc1cnn(-c2ccccc2F)c1-c1ccc(Cl)cc1)c1cccnc1C(F)F [Example 149] |
| 2.67^[a] | O=C(Nc1cnn(-c2ccc(Br)cc2)c1Br)c1cccnc1C(F)F [Example 150] |
| 3.47^[a] | O=C(Nc1cnn(-c2ccc(Br)cc2)c1Cl)c1cccnc1C(F)F [Example 151] |
| 2.40^[a] | COc1c(NC(=O)c2cccnc2C(F)F)cnn1-c1ccc(Br)cc1 [Example 152] |
| 2.54^[a] | O=C(Nc1cnn(-c2cccc(Cl)c2)c1Br)c1cccnc1C(F)F [Example 153] |
| 2.96^[a] | Cc1cccc(-n2ncc(NC(=O)c3cc(C)cnc3C(F)F)c2C(F)(F)F)c1 [Example 154] |
| 3.62^[a] | O=C(Nc1cnn(-c2cccc(Cl)c2)c1C(F)(F)F)c1ccc(Cl)nc1C(F)F [Example 155] |
| 3.33^[a] | Cc1cccc(-n2ncc(NC(=O)c3ccc(Cl)nc3C(F)F)c2C(F)(F)F)c1 [Example 156] |
| 3.48^[a] | Cc1ccc(-n2ncc(NC(=O)c3ccc(Cl)nc3C(F)F)c2C(F)(F)F)cc1 [Example 157] |
| 3.15^[a] | O=C(Nc1cnn(-c2ccccc2F)c1C(F)(F)F)c1ccc(Cl)nc1C(F)F [Example 158] |
| 4.13^[a] | CC(C)c1ccc(-n2ncc(NC(=O)c3ccc(Cl)nc3C(F)F)c2C(F)(F)F)cc1 [Example 159] |
| 3.53^[a] | O=C(Nc1cnn(-c2c(Cl)cccc2Cl)c1C(F)(F)F)c1ccc(Cl)nc1C(F)F [Example 160] |
| 4.23^[a] | O=C(Nc1cnn(-c2cc(Cl)cc(Cl)c2)c1C(F)(F)F)c1ccc(Cl)nc1C(F)F [Example 161] |
| 3.85^[a] | O=C(Nc1cnn(-c2ccc(Cl)cc2Cl)c1C(F)(F)F)c1ccc(Cl)nc1C(F)F [Example 162] |
| 3.71^[a] | O=C(Nc1cnn(-c2cccc(Cl)c2Cl)c1C(F)(F)F)c1ccc(Cl)nc1C(F)F [Example 163] |
| 2.90^[a] | N#Cc1c(NC(=O)c2ccc(Cl)nc2C(F)F)cnn1-c1ccccc1 [Example 164] |
| 3.37^[a] | COc1cnc(C(F)F)c(C(=O)Nc2cnn(-c3cccc(Cl)c3Cl)c2C(F)(F)F)c1 [Example 165] |
| 2.51^[a] | Cc1cnc(C(F)F)c(C(=O)Nc2cnn(-c3ccccc3)c2C#N)c1 [Example 166] |
| 3.35^[a] | Cc1cnc(C(F)F)c(C(=O)Nc2cnn(-c3cccc(Cl)c3Cl)c2C(F)(F)F)c1 [Example 167] |
| 3.53^[a] | COc1cnc(C(F)F)c(C(=O)Nc2cnn(-c3ccc(Cl)cc3Cl)c2C(F)(F)F)c1 [Example 168] |
| 3.29^[a] | COc1cnc(C(F)F)c(C(=O)Nc2cnn(-c3ccc(Cl)cc3)c2C(F)(F)F)c1 [Example 169] |
| 2.95^[a] | Cc1cnc(C(F)F)c(C(=O)Nc2cnn(Cc3ccccc3)c2C(F)(F)F)c1 [Example 170] |
| 3.16^[a] | Cc1cnc(C(F)F)c(C(=O)Nc2cnn(-c3c(Cl)cccc3Cl)c2C(F)(F)F)c1 [Example 171] |
| 3.96^[a] | O=C(Nc1cnn(-c2ccc(Cl)cc2Cl)c1C(F)(F)F)c1ccc(Br)nc1C(F)F [Example 172] |
| 3.33^[a] | O=C(Nc1cnn(Cc2ccccc2)c1C(F)(F)F)c1ccc(Cl)nc1C(F)F [Example 173] |

The next lines start with the molecule.

| SMILES | LogP |
| --- | --- |
| O=C(Nc1cnn(-c2cc(Cl)cc(Cl)c2)c1C(F)(F)F)c1cccnc1C(F)F [Example 92] | 3.64^[a] |
| O=C(Nc1cnn(-c2ccc(Cl)cc2Cl)c1C(F)(F)F)c1cccnc1C(F)F [Example 93] | 3.27^[a] |
| O=C(Nc1cnn(-c2cccc(Cl)c2Cl)c1C(F)(F)F)c1cccnc1C(F)F [Example 94] | 3.11^[a] |
| O=C(Nc1cnn(-c2cc(Cl)ccc2Cl)c1C(F)(F)F)c1cccnc1C(F)F [Example 95] | 3.15^[a] |
| O=C(Nc1cnn(-c2ccc(Cl)c(Cl)c2)c1C(F)(F)F)c1cccnc1C(F)F [Example 96] | 3.51^[a] |
| O=C(Nc1cnn(Cc2ccccc2)c1C(F)(F)F)c1cccnc1C(F)F [Example 97] | 2.71^[a] |
| COc1c(NC(=O)c2cccnc2C(F)F)cnn1-c1ccccc1 [Example 98] | 1.82^[a] |
| CCc1c(NC(=O)c2cccnc2C(F)F)cnn1-c1ccc(C)cc1 [Example 99] | 2.34^[a] |
| CCc1c(NC(=O)c2cccnc2C(F)F)cnn1-c1cccc(C)c1 [Example 100] | 2.34^[a] |
| Cc1ccc(-n2ncc(NC(=O)c3cc(C)cnc3C(F)F)c2C(F)(F)F)cc1 [Example 101] | 3.13^[a] |
| CC(C)c1c(NC(=O)c2cccnc2C(F)F)cnn1-c1ccc(Cl)cc1 [Example 102] | 2.62^[a] |
| CC(C)c1c(NC(=O)c2cccnc2C(F)F)cnn1-c1cccc(Cl)c1 [Example 103] | 2.60^[a] |
| CCc1c(NC(=O)c2cccnc2C(F)F)cnn1-c1ccccc1C [Example 104] | 2.18^[a] |
| CCc1c(NC(=O)c2cccnc2C(F)F)cnn1-c1ccc(Cl)cc1 [Example 105] | 2.48^[a] |
| Cc1ccccc1-n1ncc(NC(=O)c2cccnc2C(F)F)c1C(C)C [Example 106] | 2.37^[a] |
| CCc1c(NC(=O)c2cccnc2C(F)F)cnn1-c1cccc(Cl)c1 [Example 107] | 2.48^[a] |
| Cc1ccc(-n2ncc(NC(=O)c3cccnc3C(F)F)c2C(C)C)cc1 [Example 108] | 2.48^[a] |
| CC(C)c1c(NC(=O)c2cccnc2C(F)F)cnn1-c1ccccc1Cl [Example 109] | 2.35^[a] |
| CCc1c(NC(=O)c2cccnc2C(F)F)cnn1-c1ccccc1Cl [Example 110] | 2.17^[a] |
| Cc1c(NC(=O)c2cccnc2C(F)F)cnn1-c1ccccc1C(F)(F)F [Example 111] | 2.08^[a] |
| Cc1ccc(-n2ncc(NC(=O)c3cccnc3C(F)F)c2C)cc1 [Example 112] | 2.10^[a] |
| Cc1c(NC(=O)c2cccnc2C(F)F)cnn1-c1cccc(C(F)(F)F)c1 [Example 113] | 2.48^[a] |
| Cc1c(NC(=O)c2cccnc2C(F)F)cnn1-c1ccc(C(F)(F)F)cc1 [Example 114] | 2.53^[a] |
| Cc1ccccc1-n1ncc(NC(=O)c2cccnc2C(F)F)c1C [Example 115] | 1.93^[a] |
| Cc1cccc(-n2ncc(NC(=O)c3cccnc3C(F)F)c2C(C)C)c1 [Example 116] | 2.50^[a] |
| CCc1c(NC(=O)c2cccnc2C(F)F)cnn1-c1cccc(C(F)(F)F)c1 [Example 117] | 2.69^[a] |
| CCc1c(NC(=O)c2cccnc2C(F)F)cnn1-c1ccc(C(F)(F)F)cc1 [Example 118] | 2.76^[a] |
| CCc1c(NC(=O)c2cccnc2C(F)F)cnn1-c1ccccc1 [Example 119] | 2.01^[a] |

| SMILES | LogP |
| --- | --- |
| CC(C)c1c(NC(=O)c2cccnc2C(F)F)cnn1-c1ccccc1 [Example 120] | 2.15^[a] |
| CCCc1c(NC(=O)c2cccnc2C(F)F)cnn1-c1ccccc1 [Example 121] | 2.28^[a] |
| CCCCn1ncc(NC(=O)c2cccnc2C(F)F)c1CC [Example 122] | 2.00^[a] |
| CCCCn1ncc(NC(=O)c2cccnc2C(F)F)c1C(C)C [Example 123] | 2.18^[a] |
| CCc1c(NC(=O)c2cccnc2C(F)F)cnn1CCC(C)C [Example 124] | 2.32^[a] |
| CC(C)CCn1ncc(NC(=O)c2cccnc2C(F)F)c1C(C)C [Example 125] | 2.53^[a] |
| CCC(C)n1ncc(NC(=O)c2cccnc2C(F)F)c1C (stereo not shown) [Example 126] | 1.63^[a] |
| CCc1c(NC(=O)c2cccnc2C(F)F)cnn1C(CC)CC [Example 127] | 2.20^[a] |
| O=C(Nc1cnn(-c2ccc(F)cc2)c1-c1cccc(Cl)c1)c1cccnc1C(F)F [Example 128] | 2.92^[a] |
| O=C(Nc1cnn(-c2ccccc2C(F)(F)F)c1-c1ccccc1)c1cccnc1C(F)F [Example 129] | 2.70^[a] |
| O=C(Nc1cnn(-c2ccccc2C(F)(F)F)c1-c1ccc(F)cc1)c1cccnc1C(F)F [Example 130] | 2.80^[a] |
| O=C(Nc1cnn(-c2ccccc2C(F)(F)F)c1-c1cccc(F)c1)c1cccnc1C(F)F [Example 131] | 2.80^[a] |
| O=C(Nc1cnn(-c2ccccc2C(F)(F)F)c1-c1ccc(Cl)cc1)c1cccnc1C(F)F [Example 132] | 3.04^[a] |
| Cc1cnc(C(F)F)c(C(=O)Nc2cnn(-c3ccc(Br)cc3)c2C)c1 [Example 133] | 2.59^[a] |
| Cc1c(NC(=O)c2cccnc2C(F)F)cnn1-c1ccc(Br)cc1 [Example 134] | 2.34^[a] |
| O=C(Nc1cnn(-c2ccccc2)c1Br)c1cccnc1C(F)F [Example 135] | 2.07^[a] |
| COc1cnc(C(F)F)c(C(=O)Nc2cnn(-c3ccc(Cl)c(Cl)c3)c2C(F)(F)F)c1 [Example 136] | 3.76^[a] |
| O=C(Nc1cnn(-c2ccccc2)c1Cl)c1cccnc1C(F)F [Example 137] | 2.07^[a] |
| Cc1cnc(C(F)F)c(C(=O)Nc2cnn(-c3cccc(Cl)c3)c2C(F)(F)F)c1 [Example 138] | 3.25^[a] |
| Cc1cnc(C(F)F)c(C(=O)Nc2cnn(-c3cccc(C(F)(F)F)c3)c2C(F)(F)F)c1 [Example 139] | 3.39^[a] |
| Cc1cnc(C(F)F)c(C(=O)Nc2cnn(-c3ccccc3F)c2C(F)(F)F)c1 [Example 140] | 2.77^[a] |
| Cc1cnc(C(F)F)c(C(=O)Nc2cnn(-c3ccc(F)cc3)c2C(F)(F)F)c1 [Example 141] | 2.86^[a] |
| Cc1cnc(C(F)F)c(C(=O)Nc2cnn(-c3ccc(C(C)C)cc3)c2C(F)(F)F)c1 [Example 142] | 3.78^[a] |
| N#Cc1c(NC(=O)c2cccnc2C(F)F)cnn1-c1ccccc1 [Example 143] | 2.28^[a] |
| O=C(Nc1cnn(-c2cccc(Cl)c2Cl)c1C(F)(F)F)c1ccc(Br)nc1C(F)F [Example 144] | 3.80^[a] |
| O=C(Nc1cnn(-c2ccc(Cl)cc2)c1C(F)(F)F)c1ccc(Br)nc1C(F)F [Example 145] | 3.73^[a] |
| O=C(Nc1cnn(-c2ccccc2F)c1-c1cccc(F)c1)c1cccnc1C(F)F [Example 146] | 2.51^[a] |
